In US8138173B2, “Pyrazolo[3,4-C]quinolines, pyrazolo[3,4-C]naphthyridines, analogs thereof, and methods” (3M Innovative Properties Company, priority 2005, dated 2012):
Counter-ions that a name gives are not always drawn.

melting point | SMILES
207 to 209 °C | CCc1c2c(nn1-c1ccccc1)c(Cl)nc1ccccc12 [Example 15, 4-Chloro-1-ethyl-2-phenyl-2H-pyrazolo[3,4-c]quinoline]
> 300 °C | CCCc1c2c(nn1-c1ccccc1)c(=O)[nH]c1ccccc12 [Example 28, 2-Phenyl-1-propyl-2,5-dihydro-4H-pyrazolo[3,4-c]quinolin-4-one]
145 to 147 °C | CCCn1nc2c(Cl)nc3ccccc3c2c1C [Example 1, 4-Chloro-1-methyl-2-propyl-2H-pyrazolo[3,4-c]quinoline]
208 to 209 °C | Cc1c2c(nn1-c1ccccc1)c(Cl)nc1ccccc12 [Example 12, 4-Chloro-1-methyl-2-phenyl-2H-pyrazolo[3,4-c]quinoline]
239 to 243 °C | CCCCc1c2c(nn1-c1ccccc1)c(Cl)nc1ccccc12 [Example 16, 1-Butyl-4-chloro-2-phenyl-2H-pyrazolo[3,4-c]quinoline]
331 to 334 °C | CCc1c2c(nn1-c1ccccc1)c(=O)[nH]c1ccccc12 [Example 14, 1-Ethyl-2-phenyl-2,5-dihydro-4H-pyrazolo[3,4-c]quinolin-4-one]
233 to 235 °C | CCOC(=O)Cc1c2c(nn1CC)c(=O)[nH]c1ccccc12 [Example 17, Ethyl (2-ethyl-4-oxo-4,5-dihydro-2H-pyrazolo[3,4-c]quinolin-1-yl)acetate]
211 to 212.5 °C | O=c1[nH]c2ccccc2c2c(CCN3CCN(Cc4ccccc4)CC3)n(-c3ccccc3)nc12 [Example 24, 1-[2-(4-Benzylpiperazin-1-yl)ethyl]-2-phenyl-2,5-dihydro-4H-pyrazolo[3,4-c]quinolin-4-one]
194 °C | Clc1nc2ccccc2c2c(CCC3CCNCC3)n(-c3ccccc3)nc12 (as salt: HCl) [Example 7, 4-Chloro-2-phenyl-1-(2-piperidin-4-ylethyl)-2H-pyrazolo[3,4-c]quinoline]
> 250 °C | Cc1c2c(nn1-c1ccccc1)c(=O)[nH]c1ccccc12 [Example 11, 1-Methyl-2-phenyl-2,5-dihydro-4H-pyrazolo[3,4-c]quinolin-4-one]
75 to 77 °C | Clc1nc2ccccc2c2c(CCN3CCN(Cc4ccccc4)CC3)n(-c3ccccc3)nc12 [Example 23, 1-[2-(4-Benzylpiperazin-1-yl)ethyl]-4-chloro-2-phenyl-2H-pyrazolo[3,4-c]quinoline]
250 to 252 °C | O=c1[nH]c2ccccc2c2c(CCC3CCNCC3)n(-c3ccccc3)nc12 [Example 6, 2-Phenyl-1-(2-piperidin-4-ylethyl)-2,5-dihydro-4H-pyrazolo[3,4-c]quinolin-4-one]
294 to 296 °C | CCCn1nc2c(O)nc3ccccc3c2c1CC(C)(C)O [Example 29, 1-(2-Hydroxy-2-methylpropyl)-2-propyl-2H-pyrazolo[3,4-c]quinolin-4-ol]
283 to 285 °C | O=C(Cc1c2c(nn1-c1ccccc1)c(=O)[nH]c1ccccc12)N1CCN(Cc2ccccc2)CC1
254 to 259 °C | O=c1[nH]c2ccccc2c2c(C(O)CC3CCCCC3)n(-c3ccccc3)nc12 (stereo not shown) [Example 10, 1-(2-Cyclohexyl-1-hydroxyethyl)-2-phenyl-2,5-dihydro-4H-pyrazolo[3,4-c]quinolin-4-one]
219 to 220 °C | CCn1nc2c(OC)nc3ccccc3c2c1CO [Example 5, (2-Ethyl-4-methoxy-2H-pyrazolo[3,4-c]quinolin-1-yl)methanol]
210.5 to 211.5 °C | O=C(Cc1c2c(nn1-c1ccccc1)c(Cl)nc1ccccc12)N1CCN(Cc2ccccc2)CC1
301 to 303 °C | CCOC(=O)Cc1c2c(nn1-c1ccccc1)c(=O)[nH]c1ccccc12 [Example 18, Ethyl (4-oxo-2-phenyl-4,5-dihydro-2H-pyrazolo[3,4-c]quinolin-1-yl)acetate]
258 to 261 °C | O=c1[nH]c2ccccc2c2c(C(O)CC3CCNCC3)n(-c3ccccc3)nc12 (stereo not shown) [Example 9, 1-(1-Hydroxy-2-piperidin-4-ylethyl)-2-phenyl-2,5-dihydro-4H-pyrazolo[3,4-c]quinolin-4-one]
295 to 297 °C | CC(C)(C)n1nc2c(=O)[nH]c3ccccc3c2c1CO [Example 26, 2-tert-Butyl-1-(hydroxymethyl)-2,5-dihydro-4H-pyrazolo[3,4-c]quinolin-4-one]
223 to 225 °C | CC(C)(C)OC(=O)N1CCC(CCc2c3c(nn2C(C)(C)C)c(=O)[nH]c2ccccc23)CC1 [Example 25, tert-Butyl 4-[2-(2-tert-butyl-4-oxo-4,5-dihydro-2H-pyrazolo[3,4-c]quinolin-1-yl)ethyl]piperidine-1-carboxylate]
> 280 °C | CC(C)Cc1c2c(nn1C)c(O)nc1ccccc12 [Example 27, 1-Isobutyl-2-methyl-2H-pyrazolo[3,4-c]quinolin-4-ol]
310 to 312 °C | O=c1[nH]c2ccccc2c2c(CCO)n(-c3ccccc3)nc12 [Example 20, 1-(2-Hydroxyethyl)-2-phenyl-2,5-dihydro-4H-pyrazolo[3,4-c]quinolin-4-one]
128 to 130 °C | Cc1c2c(cnc3ccccc32)nn1-c1ccccc1 [Example 13, 1-Methyl-2-phenyl-2H-pyrazolo[3,4-c]quinoline]
253 to 254 °C | CC(C)(C)OC(=O)N1CCC(CC(O)c2c3c(nn2-c2ccccc2)c(=O)[nH]c2ccccc23)CC1 (stereo not shown) [Example 8, tert-Butyl 4-[2-hydroxy-2-(4-oxo-2-phenyl-4,5-dihydro-2H-pyrazolo[3,4-c]quinolin-1-yl)ethyl]piperidine-1-carboxylate]
